Experimental data taken from the NIST ThermoML archive (doi:10.1021/je050034s).
Numbers after ± are expanded uncertainties.

Columns and labels:
[1] = molar heat capacity at saturation pressure
[2] = Molar enthalpy of transition or fusion; details: Crystal

c1ccc(Cc2ccccc2)cc1 [diphenylmethane]
molar heat capacity [J/K/mol], [1]
Details | Crystal | Liquid
5 K, Vacuum adiabatic calorimetry | 0.38 ± 0.02 | –
5.364 K, Vacuum adiabatic calorimetry | 0.47 ± 0.02 | –
6.296 K, Vacuum adiabatic calorimetry | 0.76 ± 0.02 | –
7.218 K, Vacuum adiabatic calorimetry | 1.16 ± 0.02 | –
8.187 K, Vacuum adiabatic calorimetry | 1.71 ± 0.02 | –
9.195 K, Vacuum adiabatic calorimetry | 2.42 ± 0.03 | –
10 K, Vacuum adiabatic calorimetry | 3.12 ± 0.04 | –
10.21 K, Vacuum adiabatic calorimetry | 3.31 ± 0.04 | –
11.33 K, Vacuum adiabatic calorimetry | 4.39 ± 0.05 | –
12.6 K, Vacuum adiabatic calorimetry | 5.74 ± 0.06 | –
13.99 K, Vacuum adiabatic calorimetry | 7.45 ± 0.07 | –
15.53 K, Vacuum adiabatic calorimetry | 9.437 ± 0.07 | –
17.24 K, Vacuum adiabatic calorimetry | 11.84 ± 0.091 | –
19.13 K, Vacuum adiabatic calorimetry | 14.59 ± 0.1 | –
20 K, Vacuum adiabatic calorimetry | 15.87 ± 0.1 | –
21.21 K, Vacuum adiabatic calorimetry | 17.66 ± 0.11 | –
23.51 K, Vacuum adiabatic calorimetry | 21.15 ± 0.12 | –
26.07 K, Vacuum adiabatic calorimetry | 24.97 ± 0.12 | –
28.93 K, Vacuum adiabatic calorimetry | 29.09 ± 0.12 | –
30 K, Vacuum adiabatic calorimetry | 30.59 ± 0.11 | –
32.11 K, Vacuum adiabatic calorimetry | 33.47 ± 0.11 | –
35.66 K, Vacuum adiabatic calorimetry | 37.99 ± 0.12 | –
39.62 K, Vacuum adiabatic calorimetry | 42.58 ± 0.12 | –
40 K, Vacuum adiabatic calorimetry | 43 ± 0.12 | –
44.02 K, Vacuum adiabatic calorimetry | 47.26 ± 0.13 | –
48.94 K, Vacuum adiabatic calorimetry | 51.94 ± 0.14 | –
50 K, Vacuum adiabatic calorimetry | 52.92 ± 0.15 | –
50.87 K, Vacuum adiabatic calorimetry | 53.74 ± 0.15 | –
52.95 K, Vacuum adiabatic calorimetry | 55.44 ± 0.15 | –
54.43 K, Vacuum adiabatic calorimetry | 56.74 ± 0.16 | –
55.01 K, Vacuum adiabatic calorimetry | 57.11 ± 0.16 | –
57.89 K, Vacuum adiabatic calorimetry | 59.58 ± 0.16 | –
59.91 K, Vacuum adiabatic calorimetry | 61.04 ± 0.17 | –
60 K, Vacuum adiabatic calorimetry | 61.11 ± 0.17 | –
63.59 K, Vacuum adiabatic calorimetry | 63.66 ± 0.17 | –
65.43 K, Vacuum adiabatic calorimetry | 65.06 ± 0.17 | –
69.82 K, Vacuum adiabatic calorimetry | 68.05 ± 0.17 | –
70 K, Vacuum adiabatic calorimetry | 68.16 ± 0.17 | –
76.62 K, Vacuum adiabatic calorimetry | 72.36 ± 0.18 | –
78.19 K, Vacuum adiabatic calorimetry | 73.39 ± 0.19 | –
80 K, Vacuum adiabatic calorimetry | 74.47 ± 0.19 | –
81.13 K, Vacuum adiabatic calorimetry | 75.18 ± 0.19 | –
84.19 K, Vacuum adiabatic calorimetry | 76.96 ± 0.19 | –
85.52 K, Vacuum adiabatic calorimetry | 77.76 ± 0.2 | –
88.47 K, Vacuum adiabatic calorimetry | 79.51 ± 0.2 | –
90 K, Vacuum adiabatic calorimetry | 80.38 ± 0.28 | –
96.79 K, Vacuum adiabatic calorimetry | 84.28 ± 0.28 | –
100 K, Vacuum adiabatic calorimetry | 86.12 ± 0.28 | –
105.91 K, Vacuum adiabatic calorimetry | 89.5 ± 0.29 | –
115.55 K, Vacuum adiabatic calorimetry | 94.96 ± 0.3 | –
120 K, Vacuum adiabatic calorimetry | 97.5 ± 0.3 | –
125.31 K, Vacuum adiabatic calorimetry | 100.54 ± 0.3 | –
135.12 K, Vacuum adiabatic calorimetry | 106.25 ± 0.31 | –
140 K, Vacuum adiabatic calorimetry | 109.13 ± 0.31 | –
145.06 K, Vacuum adiabatic calorimetry | 112.15 ± 0.32 | –
155.05 K, Vacuum adiabatic calorimetry | 118.34 ± 0.32 | –
160 K, Vacuum adiabatic calorimetry | 121.47 ± 0.32 | –
165.03 K, Vacuum adiabatic calorimetry | 124.68 ± 0.32 | –
175.01 K, Vacuum adiabatic calorimetry | 131.04 ± 0.33 | –
180 K, Vacuum adiabatic calorimetry | 134.55 ± 0.33 | –
185 K, Vacuum adiabatic calorimetry | 138.14 ± 0.34 | –
195.05 K, Vacuum adiabatic calorimetry | 145.11 ± 0.35 | –
200 K, Vacuum adiabatic calorimetry | 148.68 ± 0.35 | –
205.14 K, Vacuum adiabatic calorimetry | 152.48 ± 0.35 | –
215.25 K, Vacuum adiabatic calorimetry | 160.17 ± 0.36 | –
220 K, Vacuum adiabatic calorimetry | 163.86 ± 0.37 | –
225.34 K, Vacuum adiabatic calorimetry | 168.15 ± 0.37 | –
235.38 K, Vacuum adiabatic calorimetry | 176.42 ± 0.37 | –
240 K, Vacuum adiabatic calorimetry | 180.3 ± 0.38 | –
245.37 K, Vacuum adiabatic calorimetry | 185.01 ± 0.38 | –
246.51 K, Vacuum adiabatic calorimetry | 185.99 ± 0.38 | –
255.32 K, Vacuum adiabatic calorimetry | 193.89 ± 0.39 | –
257.33 K, Vacuum adiabatic calorimetry | 195.76 ± 0.4 | –
260 K, Vacuum adiabatic calorimetry | 198.12 ± 0.4 | –
268.6 K, Vacuum adiabatic calorimetry | 206.43 ± 0.41 | –
279.29 K, Vacuum adiabatic calorimetry | 217.16 ± 0.42 | –
280 K, Vacuum adiabatic calorimetry | 217.44 ± 0.42 | –
289.28 K, Vacuum adiabatic calorimetry | 229.55 ± 0.43 | –
289.37 K, Vacuum adiabatic calorimetry | 229.9 ± 0.43 | –
298.15 K, Vacuum adiabatic calorimetry | 236.26 ± 0.44 | 267.36 ± 0.47
298.37 K, Vacuum adiabatic calorimetry | 236.5 ± 0.44 | 267.48 ± 0.47
300 K, Vacuum adiabatic calorimetry | – | 268.32 ± 0.47
303.38 K, Vacuum adiabatic calorimetry | – | 270.07 ± 0.47
305.34 K, Vacuum adiabatic calorimetry | – | 270.99 ± 0.47
305.59 K, Vacuum adiabatic calorimetry | – | 271.14 ± 0.47
313.82 K, Vacuum adiabatic calorimetry | – | 275.26 ± 0.47
320 K, Vacuum adiabatic calorimetry | – | 278.43 ± 0.48
325.59 K, Vacuum adiabatic calorimetry | – | 281.23 ± 0.48
339.57 K, Vacuum adiabatic calorimetry | – | 288.4 ± 0.49
340 K, Vacuum adiabatic calorimetry | – | 288.62 ± 0.49
356.66 K, Vacuum adiabatic calorimetry | – | 297.31 ± 0.5
360 K, Vacuum adiabatic calorimetry | – | 299.1 ± 0.5
373.63 K, Vacuum adiabatic calorimetry | – | 306.34 ± 0.51
380 K, Vacuum adiabatic calorimetry | – | 309.56 ± 0.51
390.49 K, Vacuum adiabatic calorimetry | – | 314.87 ± 0.52
400 K, Vacuum adiabatic calorimetry | – | 319.92 ± 0.52
407.29 K, Vacuum adiabatic calorimetry | – | 323.8 ± 0.52
420 K, Vacuum adiabatic calorimetry | – | 330.39 ± 0.53
424.08 K, Vacuum adiabatic calorimetry | – | 332.47 ± 0.53
438.41 K, Vacuum adiabatic calorimetry | – | 339.81 ± 0.54
440 K, Vacuum adiabatic calorimetry | – | 340.5 ± 0.54
460 K, Vacuum adiabatic calorimetry | – | 349.5 ± 0.55
480 K, Small sample (50 mg) DSC | – | 358.67 ± 7.2
500 K, Small sample (50 mg) DSC | – | 367.6 ± 7.3
520 K, Small sample (50 mg) DSC | – | 376.3 ± 7.6
540 K, Small sample (50 mg) DSC | – | 384.6 ± 7.7
560 K, Small sample (50 mg) DSC | – | 392.7 ± 7.8
580 K, Small sample (50 mg) DSC | – | 400.5 ± 8
600 K, Small sample (50 mg) DSC | – | 407.9 ± 8.1
620 K, Small sample (50 mg) DSC | – | 415.1 ± 8.3
640 K, Small sample (50 mg) DSC | – | 422.3 ± 8.5
660 K, Small sample (50 mg) DSC | – | 429.6 ± 8.6
680 K, Small sample (50 mg) DSC | – | 437.4 ± 8.7
700 K, Small sample (50 mg) DSC | – | 446.9 ± 9

Details | Molar enthalpy of transition or fusion [kcal/mol] | Triple point temperature [K]
Crystal | – | 298.37 ± 0.025
[2] | 4.543 ± 0.00478 | –

Details | mass density [kg/m3] | vapor or sublimation pressure [kPa]
308.14 K, Liquid, Vibrating tube method | 996.7 ± 1 | –
323.14 K, Liquid, Vibrating tube method | 985.3 ± 1 | –
329.99 K, Liquid, Inclined piston gauge | – | 0.0261 ± 0.001
339.99 K, Liquid, Inclined piston gauge | – | 0.0523 ± 0.0011
348.13 K, Liquid, Vibrating tube method | 965.6 ± 1 | –
349.98 K, Liquid, Inclined piston gauge | – | 0.0995 ± 0.0011
359.97 K, Liquid, Inclined piston gauge | – | 0.1814 ± 0.0012
369.98 K, Liquid, Inclined piston gauge | – | 0.3181 ± 0.0014
373.12 K, Liquid, Vibrating tube method | 945.8 ± 0.9 | –
379.98 K, Liquid, Inclined piston gauge | – | 0.5378 ± 0.0016
389.97 K, Liquid, Inclined piston gauge | – | 0.8793 ± 0.0021
398.12 K, Liquid, Vibrating tube method | 926.1 ± 0.9 | –
399.97 K, Liquid, Inclined piston gauge | – | 1.395 ± 0.0027
408.21 K, Liquid, Twin ebulliometer | – | 2 ± 0.01
409.97 K, Liquid, Inclined piston gauge | – | 2.155 ± 0.0036
414.97 K, Liquid, Inclined piston gauge | – | 2.651 ± 0.0043
415.11 K, Liquid, Twin ebulliometer | – | 2.666 ± 0.01
419.97 K, Liquid, Inclined piston gauge | – | 3.243 ± 0.0049
423.12 K, Liquid, Vibrating tube method | 905.7 ± 0.9 | –
425.34 K, Liquid, Twin ebulliometer | – | 4 ± 0.011
432.99 K, Liquid, Twin ebulliometer | – | 5.333 ± 0.011
444.38 K, Liquid, Twin ebulliometer | – | 7.999 ± 0.012
448.11 K, Liquid, Vibrating tube method | 885.4 ± 0.9 | –
452.93 K, Liquid, Twin ebulliometer | – | 10.67 ± 0.013
459.84 K, Liquid, Twin ebulliometer | – | 13.33 ± 0.014
467.03 K, Liquid, Twin ebulliometer | – | 16.66 ± 0.015
473 K, Liquid, Twin ebulliometer | – | 19.93 ± 0.016
473.11 K, Liquid, Vibrating tube method | 864.3 ± 0.9 | –
480.86 K, Liquid, Twin ebulliometer | – | 25.02 ± 0.018
488.78 K, Liquid, Twin ebulliometer | – | 31.17 ± 0.021
496.76 K, Liquid, Twin ebulliometer | – | 38.56 ± 0.024
498.11 K, Liquid, Vibrating tube method | 842.6 ± 0.9 | –
504.79 K, Liquid, Twin ebulliometer | – | 47.37 ± 0.027
512.88 K, Liquid, Twin ebulliometer | – | 57.81 ± 0.031
521.02 K, Liquid, Twin ebulliometer | – | 70.11 ± 0.035
523.11 K, Liquid, Vibrating tube method | 819.2 ± 0.8 | –
529.22 K, Liquid, Twin ebulliometer | – | 84.53 ± 0.041
537.47 K, Liquid, Twin ebulliometer | – | 101.31 ± 0.046
545.78 K, Liquid, Twin ebulliometer | – | 120.78 ± 0.05
554.14 K, Liquid, Twin ebulliometer | – | 143.23 ± 0.06
562.56 K, Liquid, Twin ebulliometer | – | 169 ± 0.07
571.03 K, Liquid, Twin ebulliometer | – | 198.46 ± 0.08
579.55 K, Liquid, Twin ebulliometer | – | 231.99 ± 0.09
588.13 K, Liquid, Twin ebulliometer | – | 269.98 ± 0.09
743.8 K, Gas, DSC | 104.3 ± 10 | –
754.8 K, Gas, DSC | 148.4 ± 15 | –
760.6 K, Liquid, DSC | 417.7 ± 42 | –
767.1 K, Liquid, DSC | 417.5 ± 42 | –
769.8 K, Liquid, DSC | 397.2 ± 40 | –
770 K, Gas, DSC | 191.2 ± 19 | –
775.7 K, Gas, DSC | 220.3 ± 22 | –
776.5 K, Liquid, DSC | 333.5 ± 34 | –
777 K, Liquid, DSC | 304.2 ± 31 | –

Details | Critical temperature [K]
Liquid, DTA | 778 ± 2
